Several values for one entry are separate records, joined by “and”; a condition that tells them apart may be missing. Identical values can stand only once. Counter-ions that a name gives are not always drawn. Like-named read-outs stand apart in the source and are kept apart here.
Columns and labels:
[1] = Single dose oral pharmacokinetics comparative study of Lurasidone monohydrochloride v. dihydrochloride; type: in vivo; conditions: 10 mg/kg, mean plasma, oral gavage, male Sprague Dawley rats
Experimental: Lurasidone salts mean plasma PK parameters were quantified with an API 3200 LC-MS/MS system and illustrated in Table 1.
Male Sprague Dawley rats aged 6-8 weeks and weighing 180-220 g will be used for experiment. Animals will be acclimatized for a minimum period of 5 days. Overnight fasted animals were administered the test substance by oral gavage with a dose equivalent dose of 10 mg/kg of the parent compound with ready to use formulation provided and at a dose volume of 10.06 & 9.6 mL/kg b.w. With mild inhalation anesthesia (Isoflurane), blood samples (200-250 μL) were collected by retro-orbital route at specified time points. Lurasidone hydrochloride and dihydrochloride samples were administered by oral route at a dose volume of 10.06 & 9.6 mL/kg body weight respectively. The actual dosage volume for each animal were calculated based on the fasted body weight. All the animals were administered a single dose on the day of experiment. Blood samples were collected in pre-labeled centrifuge tubes containing anticoagulant (K2EDTA). Blood sampling time points for both the groups were as follows Group 1 & 2—Subgroup 1 (n=5)—0.08, 0.16, 0.33, 0.5, 0.67, 0.83, 1.00 & Subgroup 2 (n=5)—1.5, 2, 3, 6, 12, 18, 24 h. All the animals were administered a single dose on the day of experiment. Blood samples were centrifuged at 4000 rpm at 4° C. for 10 minutes and the corresponding plasma samples were harvested into pre-labeled tubes. Plasma samples will be stored at −80° C. until analysis. The blood samples were centrifuged at 4000 rpm for 10 minutes at 4° C. and the corresponding plasma samples were transferred to clean pre-labeled tubes and stored at −80° C. until analysis.

[2] = Stability by storage under accelerated stability testing conditions; type: physicochemical; conditions: storage at 40° C., 75% RH and 50° C., 90% RH
[3] = Comparative solubility study in McIlvaine Buffer pH 3.8; type: physicochemical
Experimental: The solubility study was performed for the dihydrochloride salt of the present invention using the McIlvaine Buffer pH 3.8.

[4] = Solubility assayed in water; type: physicochemical; conditions: water and mixtures of water with water-miscible solvents; qualitative
Experimental: In particular, the solubility of the compounds of the present invention in comparison with hydrochloride was assayed in water and recorded.

[5] = in vivo; cited from earlier work
[6] = cited from earlier work
[7] = Comparative solubility study in McIlvaine Buffer pH 3.8; type: physicochemical; remark: listed apart in the source
[8] = male, Sprague Dawley, rat, plasma, po
[9] = listed as Monohydrochloride, hydrochloride

Q: Which AUC(0-inf) [1, 8] does the source give for `O=C1[C@@H]2[C@H]3CC[C@H](C3)[C@@H]2C(=O)N1C[C@@H]1CCCC[C@H]1CN1CCN(c2nsc3ccccc23)CC1` [Di HCl Salt, (3aR,4S,7R,7aS)-2-{(1R,2R)-2-[4-(1,2-benzisothiazol-3-yl)piperazin-1-ylmethyl]cyclohexylmethyl}hexahydro-4,7-methano-2H-isoindole-1,3-dione dihydrochloride dihydrate] here?
A: 577 ng·h/mL

Q: What about the AUC(0-t) [1, 8] of the same compound?
A: 570 ng·h/mL

Q: What about the Cmax ([1]; male, Sprague Dawley, rat, plasma, po, read-out: Cmax) of the same compound?
A: 659 ng/mL

Q: What about the AUCextrap ([1]; dihydrochloride dihydrate) of the same compound?
A: 1.29%

Q: What about the MRTlast ([1]; dihydrochloride dihydrate) of the same compound?
A: 1.05 h

Q: And the T1/2 ([1]; dihydrochloride dihydrate)?
A: 1.07 h

Q: What about the stability profile [2] of the same compound?
A: excellent stability profile

Q: What about the “Solubility (mg/ml) Avg.” value ([3]; average of sample 1 and 2, dihydrochloride dihydrate) of the same compound?
A: 0.6472 mg/mL and 0.9020 mg/mL

Q: And the “Solubility (mg/ml) Sample 1” value ([3]; sample 1, dihydrochloride dihydrate)?
A: 0.7220 mg/mL and 0.9548 mg/mL

Q: And the “Solubility (mg/ml) Sample 2” value ([3]; sample 2, dihydrochloride dihydrate)?
A: 0.5724 mg/mL and 0.8498 mg/mL

Q: What about the solubility in water [4] of the same compound?
A: excellent solubility

Q: Which results are given for `O=C1[C@@H]2[C@H]3CC[C@H](C3)[C@@H]2C(=O)N1C[C@@H]1CCCC[C@H]1CN1CCN(c2nsc3ccccc23)CC1` [Mono HCl Salt, (3aR,4S,7R,7aS)-2-[((1R,2R)-2-{[4-(1,2-benzisothiazol-3-yl)-piperazin-1-yl]methyl}cyclohexyl)methyl]hexahydro-1H-4,7-methanisoindol-1,3-dione hydrochloride]?
A: bioavailability [5]: less than 12%; MRT last [1, 8]: 57 min; half-life [1, 8]: 71.4 min; AUCextrap [1, 9]: 1.37%; AUCinf [1, 9]: 357.32 ng·h/mL; AUClast [1, 9]: 352.41 ng·h/mL; Cmax [1, 9]: 412.39 ng/mL; Tmax ([1]; rat): 19.8 min; solubility in 0.1 N HCl ([6]; 0.1 N HCl): practically insoluble; solubility in water ([6]; water): very slightly soluble; Solubility (mg/ml) Avg. ([7]; average of sample 1 and 2, hydrochloride): 0.2126 mg/mL; solubility ([7]; listed as Lurasidone hydrochloride): less than 0.212 mg/ml; solubility ([7]; listed as mono hydrochloride salt): around 0.212 mg/ml; Solubility (mg/ml) Sample 1 ([7]; sample 1, hydrochloride): 0.2104 mg/mL; Solubility (mg/ml) Sample 2 ([7]; sample 2, hydrochloride): 0.2148 mg/mL
